Measured values taken from patent US8653258B2, “Compositions for regulating or modulating quorum sensing in bacteria, methods of using the compounds, and methods of regulating or modulating quorum sensing in bacteria” (Georgia State University Research Foundation, Inc., priority 2007, dated 2014).
Several values for one entry are separate records, joined by “and”; a condition that tells them apart may be missing. Equal entries are not always repeated. Where two headings read alike, the source gives them in different places.

How the values were obtained:
[1] = tested on: AI-2-mediated gene expressions; details: at about 323 μM; cited from earlier work
[2] = tested on: AI-2-mediated quorum sensing; test: microbe, parasite or virus in culture; type: cell-based, Vibrio harveyi; details: tested at least 3 times
Description: The candidate compounds identified as described in Example 1, above, were tested for their ability to inhibit AI-2 induced quorum sensing using the MM32 strain of V. harveyi. […] The V. harveyi bacteria can also emit luminescence upon AI-2 induced quorum sensing stimulation. Therefore, the ability of the “virtually” identified compounds to inhibit luminescence production in the presence of DPD and boric acid was examined.
MM32 bacteria were streak-seeded on fresh LM plates and cultured in the presence of kanamycin (50 μg/mL) and chloramphenicol (10 μg/mL). Colonies appeared after overnight incubation at 30° C. A single colony was picked up from the LM plate. This strain was grown for 16 hrs with aeration at 175 r.p.m and at 30° C. in 2 mL of Autoinducer Bioassay (AB) medium with antibiotics (kanamycin 50 μg/mL and chloramphenicol 10 μg/mL). The culture was then diluted to an OD600 0.7. This preinoculum was grown in AB-Fe medium with 1.2 mM of iron to OD600 1.0-1.1. The resulting inoculum culture was then diluted 5000-fold in fresh AB medium.
Solutions of the test compounds in AB medium were prepared in 96-well plates. To these solutions, freshly synthesized DPD (pH=7) solution was added for a final concentration of 5 μM. Boric acid was added to give a final concentration of 1 mM. After the addition of bacteria in AB medium, the micro plates were covered with a non-toxic plate sealer and incubated at 30° C. with aeration for 3-4 hrs.
In an initial round of screening, the concentration of the test compounds was fixed at 100 μg/mL (about 200-600 μM).

V. harveyi = test: Bacterial growth curves (doubling time); type: cell-based, Vibrio harveyi
Description: To make sure that the observed luminescence intensity changes were not due to inhibition of bacterial growth, the effect of these boronic acids on bacterial growth was also studied.

cysteines in protein = details: read-out: EC50, covalent modification of cysteines in protein; cited from earlier work
[3] = V. harveyi MM32, DPD 5 μM, boric acid 1 mM, read-out: IC50 value, inhibition of AI-2-mediated quorum sensing (V. harveyi luminescence)
[4] = compound at 125 μM, control 79.4 min
[5] = Vibrio harveyi, read-out: IC50 value, inhibition of AI-2-mediated quorum sensing (V. harveyi luminescence), V. harveyi MM32, DPD 5 μM, boric acid 1 mM

Row | Compound | IC50 [2, 5] | other results
1 | CCCCC1=C(Br)/C(=C/Br)OC1=O [(5Z)-4-bromo-5-(bromomethylene)-3-butyl-2(5H)-furanone] |  | inhibition of AI-2-mediated gene expressions [1]: inhibit many AI-2-mediated gene expressions
2 | OB(O)c1cncc2ccccc12 [Compound 4-IQBA] |  | IC50 [2, 3]: 66 µM and 66.1 µM; doubling time (V. harveyi; [4]): 80.4 min
3 | OB(O)c1cccc2cnccc12 [Compound 5-IQBA] |  | IC50 [2, 3]: 30 µM and 30.4 µM; doubling time (V. harveyi; [4]): 99.2 min
4 | CC(C)OC(=S)CS(=O)(=O)c1ccccc1 [Compound 23] | 33 ± 4 µM | 
5 | Oc1cccc(O)c1O [Compound 61, pyrogallol] | 2 µM | effect on bacterial growth (V. harveyi): not due to growth inhibition; doubling time (V. harveyi; compound at 5 μM, control 78.9 min): 78.4 min
6 | c1ccc2c(c1)Nc1ccccc1S2 [Compound 62, phenothiazine] | 10 µM | IC50 ([2]; read-out: IC50 value, inhibition of AI-2-mediated quorum sensing (V. harveyi luminescence), V. harveyi MM32, DPD 5 μM, boric acid 1 mM): 10.7 ± 3.7 µM; effect on bacterial growth (V. harveyi): not due to growth inhibition; doubling time (V. harveyi; compound at 20 μM, control 78.9 min): 72.3 min
7 | Oc1ccccc1O [Compound 63, catechol] | 59 ± 9 µM | 
8 | CCOC(=S)CS(=O)(=O)c1ccc(Br)cc1 [Compound H14] | 13.8 ± 2 µM | 
9 | CCOC(=S)CS(=O)(=O)c1ccc(OC)cc1 [Compound H18] | 26 ± 3.5 µM | 
10 | CCOC(=O)CS(=O)(=O)c1ccc(-c2ccc3c(c2)OCCO3)cc1 [Compound H20] | 157 ± 43 µM | 
11 | CCOC(=O)CS(=O)(=O)c1ccc(-c2ccc(C)cc2)cc1 [Compound H21] | 8.2 ± 2.3 µM | 
12 | CCOC(=O)CS(=O)(=O)c1ccc(-c2ccc(C(N)=O)cc2)cc1 [Compound H24] | 31.3 ± 23 µM | 
13 | CCCS(=O)(=O)CC(=S)OCC [Compound H26] | 21.6 ± 2.9 µM | 
14 | CCOC(=O)CS(=O)(=O)c1cccc(Br)c1 [Compound H28] | 162 ± 22 µM | 
15 | O=CC=Cc1ccccc1 [cinnamaldehyde] |  | EC50 (cysteines in protein): 19 µM
